Results: publication PMC6462414 (Nature, 2018)
Converted amounts (≈) assume the structure as drawn. Read-outs that look alike come from different tables or passages of the source.

How the values were obtained:
[1] = tested on: S. aureus MW2; type: cell-based, Staphylococcus aureus; conditions: for retinoid-resistant mutants by plating: 10^10 CFU MW2 plated on agar with 2.5×, 5× or 10× MIC
[2] = tested on: MRSA strain MW2; assay: MIC / growth inhibition of MRSA strain MW2; type: cell-based, Staphylococcus aureus; conditions: for minimum inhibitory concentration (MIC): MRSA strain MW2
[3] = tested on: Exponential-phase MRSA cells (strain MW2); assay: Killing kinetics, exponential-phase MRSA MW2; type: cell-based, Staphylococcus aureus; conditions: 10× MIC, level of detection 2 × 10^2 CFU ml^−1
[4] = tested on: MRSA-MW2-infected C. elegans; assay: C. elegans-MRSA killing assay; type: in vivo, Caenorhabditis elegans; conditions: for C. elegans protected against MW2-induced death: at concentrations above in vitro MICs
[5] = tested on: clinical S. aureus strains; assay: Activity against panel of clinical S. aureus strains; type: cell-based, Staphylococcus aureus
[6] = tested on: Enterococcus faecium strains; assay: Activity against Enterococcus faecium strains; type: cell-based
[7] = tested on: Gram-negative species; assay: Activity against Gram-negative species; type: cell-based
[8] = tested on: exponential-phase S. aureus MW2 cells; assay: SYTOX Green membrane permeabilization, exponential-phase MW2; type: cell-based, Staphylococcus aureus
[9] = tested on: S. aureus MW2; assay: Transmission electron microscopy of retinoid-treated cells; type: cell-based, Staphylococcus aureus; conditions: 10× MIC
[10] = Giant unilamellar vesicle integrity; conditions: DOPC:DOPG 7:3
[11] = tested on: Exponential-phase S. aureus MW2; assay: Cell lysis; type: cell-based, Staphylococcus aureus; conditions: 10× MIC, 4 h, OD600
[12] = tested on: S. aureus MW2 persisters; assay: Viability of MRSA MW2 persisters; type: cell-based, Staphylococcus aureus; conditions: for eradication of MRSA persisters: at 8 μg ml^−1; for killing of MRSA persister cells: stationary-phase MW2, 4 h
[13] = tested on: persisters formed by clinical isolates including VRS1; assay: Viability of persisters of clinical S. aureus isolates; type: cell-based, Staphylococcus aureus; conditions: 8–10× MIC; including multi-drug resistant VRS1
[14] = tested on: MRSA MW2 biofilms; assay: Persisters in MRSA biofilms; type: cell-based, Staphylococcus aureus
[15] = tested on: MRSA growing and persister cells; assay: Synergism with gentamicin; type: cell-based, Staphylococcus aureus
[16] = tested on: human erythrocytes; assay: Haemolytic activity; type: cell-based; conditions: 2% human erythrocytes, 1 h
[17] = tested on: normal human primary hepatocytes; assay: Cytotoxicity, human primary hepatocytes; type: cell-based; conditions: 24 h
[18] = tested on: MW2-infected neutropenic mice; assay: Deep-seated mouse thigh MRSA infection model; type: in vivo; conditions: 20 mg kg^−1 i.p. alone or in combination with gentamicin 30 mg kg^−1 s.c.
[19] = tested on: S. aureus MW2 persisters; assay: SYTOX Green membrane permeabilization, MW2 persisters; conditions: SYTOX Green uptake
[20] = tested on: S. aureus MW2 persisters; conditions: not told
[21] = cited from earlier work
[22] = Hepatic and renal toxicity in mice; type: in vivo, mouse; conditions: every 12 h for 3 days, i.p.; analogue 2 10–80 mg kg^−1, vancomycin 25 mg kg^−1; P > 0.7
[23] = 100 days serial passage in sub-MIC CD437

In the case of `O=C(O)c1cn(C2CC2)c2cc(N3CCNCC3)c(F)cc2c1=O` [ciprofloxacin], the “increase in resistance after serial passage” value (from here on “increase in resistance”) ([1]; serial passage in ciprofloxacin for 100 days) is reported as 256 fold.

With `O=C(O)c1ccc2cc(-c3ccc(O)c(C45CC6CC(CC(C6)C4)C5)c3)ccc2c1` [CD437] the “minimum inhibitory concentration (MIC)” value [2] was 1 µg/mL (≈ 2.51 µM), the “levels of MW2 after two hours” value [3] was “below the limit of detection” and the “C. elegans protected against MW2-induced death” value [4] was 100%. The “activity against panel of clinical S. aureus strains” value [5] was “potent activity”, the “activity against Enterococcus faecium strains” value [6] was “potent activity” and the “activity against Gram-negative species” value [7] was “not against Gram-negative species”. For the same compound, the “retinoid-resistant mutants by plating” value [1] was “unable to obtain retinoid-resistant mutants”, the “increase in resistance” value [1, 23] was “twofold” and the “membrane permeabilization (SYTOX Green uptake)” value (“membrane permeabilization” for short) ([8]; exponential-phase MW2) was “induced membrane permeabilization”. The “formation of mesosome-like structures” value [9] was “caused the formation of mesosome-like structures”, the “integrity of giant unilamellar vesicles” value [10] was “disrupted the integrity” and the “direct lysis of bacterial cells” value [11] was “did not lyse bacterial cells directly”. The “eradication of MRSA persisters” value [12] was “completely eradicated MRSA persisters”, the “killing of MRSA persister cells” value [12] was “killed MRSA-persister cells” and the “time to complete eradication of persisters of 13 clinical isolates” value [13] was 1 to 4 h. For the same compound, the “persisters in MRSA biofilms killed” value ([14]; 16× MIC) was “around 90%”, the “persisters in MRSA biofilms killed” value ([14]; 32× MIC) was ~100% and the synergism with gentamicin [15] was “significant synergism”. For the same compound, the “median haemolytic concentration (HC50)” value [16] was “greater than 32 μg ml^−1”, the “median lethal concentration (LC50)” value [17] was ≥ 20 µg/mL and the “efficacy in thigh infection model” value [18] was “exhibited efficacy”. For the same compound, the “permeabilization of MRSA-persister membranes” value [19] was “induced rapid permeabilization”.

With daptomycin the “increase in resistance” value ([1]; serial passage in daptomycin for 15 days) was “tenfold”.

In the case of `COc1ccc(-c2ccc3cc(C(=O)O)ccc3c2)cc1C12CC3CC(CC(C3)C1)C2` [adapalene], the “activity against MRSA” value ([2]; MRSA MW2) is reported as “ineffective against MRSA”.

For `O=C(O)c1ccc(-c2ccc3cc(O)c(C45CC6CC(CC(C6)C4)C5)cc3c2)cc1` [CD1530], the “minimum inhibitory concentration (MIC)” value [2] was 1 µg/mL (≈ 2.51 µM), the “levels of MW2 after two hours” value [3] was “below the limit of detection” and the “C. elegans protected against MW2-induced death” value [4] was 100%. For the same compound, the “activity against panel of clinical S. aureus strains” value [5] was “potent activity”, the “activity against Enterococcus faecium strains” value [6] was “potent activity” and the “activity against Gram-negative species” value [7] was “not against Gram-negative species”. The “retinoid-resistant mutants by plating” value [1] was “unable to obtain retinoid-resistant mutants”, the “increase in resistance” value [1, 23] was “twofold” and the “membrane permeabilization” value [8] was “induced membrane permeabilization”. For the same compound, the “formation of mesosome-like structures” value [9] was “caused the formation of mesosome-like structures”, the “integrity of giant unilamellar vesicles” value [10] was “disrupted the integrity” and the “direct lysis of bacterial cells” value [11] was “did not lyse bacterial cells directly”. The “eradication of MRSA persisters” value [12] was “completely eradicated MRSA persisters”, the “killing of MRSA persister cells” value [12] was “killed MRSA-persister cells” and the “time to complete eradication of persisters of 13 clinical isolates” value [13] was 1 to 4 h. The “persisters in MRSA biofilms killed” value ([14]; 16× MIC) was “around 90%”, the “persisters in MRSA biofilms killed” value ([14]; 32× MIC) was ~100% and the synergism with gentamicin [15] was “significant synergism”. For the same compound, the “median haemolytic concentration (HC50)” value [16] was “greater than 32 μg ml^−1”, the “median lethal concentration (LC50)” value [17] was ≥ 20 µg/mL and the “permeabilization of MRSA-persister membranes” value [20] was “induced rapid permeabilization”.

In the case of `O=C(O)/C=C/c1ccc(-c2ccc(O)c(C34CC5CC(CC(C5)C3)C4)c2)cc1` [adarotene], the MIC ([2]; Staphylococcus aureus, MRSA, read-out: minimum inhibitory concentration (MIC)) is reported as 2 µg/mL (≈ 5.34 µM), the “MRSA-induced death of C. elegans” value ([4]; in vivo) is reported as “prevented the MRSA-induced death of C. elegans” and the “retinoid-resistant mutants by plating” value [1] is reported as “unable to obtain retinoid-resistant mutants”. The “increase in resistance” value [1, 23] was “twofold”, the “membrane permeabilization” value ([8]; exponential-phase MW2) was “induced membrane permeabilization” and the “integrity of giant unilamellar vesicles” value [10] was “disrupted the integrity”. The “killing of MRSA persister cells” value [12] was “inactive against persister cells”, the “median haemolytic concentration (HC50)” value [16] was “greater than 32 μg ml^−1” and the excretion [21] was “excreted rapidly”.

For `CN[C@H](CC(C)C)C(=O)N[C@H]1C(=O)N[C@@H](CC(N)=O)C(=O)N[C@H]2C(=O)N[C@H]3C(=O)N[C@H](C(=O)N[C@H](C(=O)O)c4cc(O)cc(O)c4-c4cc3ccc4O)[C@H](O)c3ccc(c(Cl)c3)Oc3cc2cc(c3O[C@@H]2O[C@H](CO)[C@@H](O)[C@H](O)[C@H]2O[C@H]2C[C@](C)(N)[C@H](O)[C@H](C)O2)Oc2ccc(cc2Cl)[C@H]1O` [vancomycin], the “ALT and BUN versus control” value [22] was “lack of significant differences”.
